EP4592286A1, “MACROCYCLIC NITROGEN-CONTAINING CROWN ETHER COMPOUND AND USE THEREOF AS PROTEIN KINASE INHIBITOR” (Artivila Biopharma, priority 2022, dated 2024)

Key:
Assay type in all cases: biochemical
JAK2 = JAK2 (Homo sapiens, UniProt O60674); assay: experiment of inhibiting kinase activity (Caliper mobility shift assay), JAK2; conditions: for inhibition at 0.01 µM: at 10 nM; for inhibition at 0.01 µM / inhibition at 0.1 µM: read-out: inhibition rate JAK2; for inhibition at 0.1 µM: at 100 nM; for IC50: kinase activity assay, Table 3
Sequence of JAK2 (O60674 whole entry): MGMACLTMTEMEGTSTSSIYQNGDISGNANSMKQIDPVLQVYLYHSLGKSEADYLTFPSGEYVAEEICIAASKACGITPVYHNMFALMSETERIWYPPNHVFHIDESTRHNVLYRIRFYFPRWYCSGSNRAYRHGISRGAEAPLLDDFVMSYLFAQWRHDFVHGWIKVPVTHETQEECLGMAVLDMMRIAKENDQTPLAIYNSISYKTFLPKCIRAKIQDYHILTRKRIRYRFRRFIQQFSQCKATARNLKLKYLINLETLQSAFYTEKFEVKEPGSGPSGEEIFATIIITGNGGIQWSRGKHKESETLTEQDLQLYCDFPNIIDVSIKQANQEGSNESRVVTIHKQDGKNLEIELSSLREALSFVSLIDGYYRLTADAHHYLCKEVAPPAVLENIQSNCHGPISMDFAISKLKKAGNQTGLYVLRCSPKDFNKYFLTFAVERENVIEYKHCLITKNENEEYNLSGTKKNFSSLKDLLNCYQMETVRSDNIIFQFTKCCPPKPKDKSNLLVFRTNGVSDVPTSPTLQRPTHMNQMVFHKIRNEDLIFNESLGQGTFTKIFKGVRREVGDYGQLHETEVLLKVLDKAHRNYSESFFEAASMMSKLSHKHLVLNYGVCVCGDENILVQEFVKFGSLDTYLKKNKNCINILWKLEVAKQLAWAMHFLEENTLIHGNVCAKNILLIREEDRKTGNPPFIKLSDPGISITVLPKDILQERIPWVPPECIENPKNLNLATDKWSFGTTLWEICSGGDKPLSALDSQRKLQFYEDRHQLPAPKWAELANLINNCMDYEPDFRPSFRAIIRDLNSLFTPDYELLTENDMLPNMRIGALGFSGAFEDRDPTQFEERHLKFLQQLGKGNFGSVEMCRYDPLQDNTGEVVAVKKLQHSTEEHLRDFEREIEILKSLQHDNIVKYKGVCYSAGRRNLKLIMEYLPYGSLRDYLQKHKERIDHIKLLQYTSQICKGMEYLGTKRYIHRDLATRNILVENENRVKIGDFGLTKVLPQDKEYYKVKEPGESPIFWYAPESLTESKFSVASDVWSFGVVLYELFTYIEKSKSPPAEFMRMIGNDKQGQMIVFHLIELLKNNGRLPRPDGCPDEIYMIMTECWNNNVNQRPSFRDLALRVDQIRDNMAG
Description: (§1) The inhibition rates of tested compounds on JAK1, JAK2, JAK3, TYK2, CDK7, CDK9, EGFR (T790M) and LRRK2 kinases were measured. The test concentrations of the compounds were 10 nM and 100 nM, and the detection was performed by replicate wells. Alternatively, compounds were 3-fold serial diluted from 10 µM for 10 concentrations in replicate wells.
(§2) The inhibitory effects of the compounds on JAK1, JAK2, JAK3, CDK7 and CDK9 kinases were detected by the method of Caliper mobility shift assay. 250 nL of the compound at 100-fold final concentration was transferred to a destination plate 384-well-plate by using a liquid handler Echo 550. A kinase solution at 2.5-fold final concentration was prepared with 1×kinase buffer. 10 µL of the kinase solution with 2.5-fold final concentration was added to compound wells and positive control wells; and 10 µL of 1×kinase buffer was added to negative control wells. The mixture was centrifuged at 1000 rpm for 30 seconds and then incubated at room temperature for 10 minutes. A mixed solution of ATP and kinase substrate at 5/3-fold final concentration was prepared with 1×kinase buffer, and 15 µL of the mixed solution of ATP and substrate at 5/3-fold final concentration was added to start the reaction. The 384-well plate was centrifuged at 1000 rpm for 30 seconds, shaked and mixed evenly, then incubated at room temperature for a corresponding time. 30 µL of stop solution was added to stop the kinase reaction, the mixture was centrifuged at 1000 rpm for 30 seconds, and shaked and mixed evenly. The conversion rate was read by Caliper EZ Reader. The conversion inhibition rate%=(average positive control conversion rate%-sample conversion rate%)/(average positive control conversion rate%-average negative control conversion rate%). Where negative control wells represent the conversion readings of the background well of kinase buffer; and positive control wells represent the conversion readings of wells without compound inhibition. With the log value of concentration as the x axis and the percentage inhibition rate as the y axis, the dose-response curve was fitted by the log (inhibitor) vs. response-variable slope of the analyzing softwar GraphPad Prism 5, and the IC50 values of each compound on enzyme activity were obtained. Calculation formula is as follows: y=Bottom+(Top-Bottom)/(1+10^((LogIC50-x)×hillslope)), where x is logarithm of inhibitor concentration; and Y is % inhibition rate.

LRRK2 = LRRK2 (Homo sapiens, UniProt Q5S007); assay: experiment of inhibiting kinase activity, LRRK2; conditions: for inhibition at 0.01 µM: at 10 nM; for inhibition at 0.01 µM / inhibition at 0.1 µM: read-out: inhibition rate LRRK2; for inhibition at 0.1 µM: at 100 nM; for IC50: kinase activity assay, Table 3
Description: as §1

JAK3 = target: T1, JAK3 (Homo sapiens, UniProt P52333); assay: experiment of inhibiting kinase activity (Caliper mobility shift assay), JAK3; conditions: for inhibition at 0.1 µM: at 100 nM; for inhibition at 0.1 µM / inhibition at 0.01 µM: read-out: inhibition rate JAK3; for inhibition at 0.01 µM: at 10 nM
T1 sequence (P52333 1-1124): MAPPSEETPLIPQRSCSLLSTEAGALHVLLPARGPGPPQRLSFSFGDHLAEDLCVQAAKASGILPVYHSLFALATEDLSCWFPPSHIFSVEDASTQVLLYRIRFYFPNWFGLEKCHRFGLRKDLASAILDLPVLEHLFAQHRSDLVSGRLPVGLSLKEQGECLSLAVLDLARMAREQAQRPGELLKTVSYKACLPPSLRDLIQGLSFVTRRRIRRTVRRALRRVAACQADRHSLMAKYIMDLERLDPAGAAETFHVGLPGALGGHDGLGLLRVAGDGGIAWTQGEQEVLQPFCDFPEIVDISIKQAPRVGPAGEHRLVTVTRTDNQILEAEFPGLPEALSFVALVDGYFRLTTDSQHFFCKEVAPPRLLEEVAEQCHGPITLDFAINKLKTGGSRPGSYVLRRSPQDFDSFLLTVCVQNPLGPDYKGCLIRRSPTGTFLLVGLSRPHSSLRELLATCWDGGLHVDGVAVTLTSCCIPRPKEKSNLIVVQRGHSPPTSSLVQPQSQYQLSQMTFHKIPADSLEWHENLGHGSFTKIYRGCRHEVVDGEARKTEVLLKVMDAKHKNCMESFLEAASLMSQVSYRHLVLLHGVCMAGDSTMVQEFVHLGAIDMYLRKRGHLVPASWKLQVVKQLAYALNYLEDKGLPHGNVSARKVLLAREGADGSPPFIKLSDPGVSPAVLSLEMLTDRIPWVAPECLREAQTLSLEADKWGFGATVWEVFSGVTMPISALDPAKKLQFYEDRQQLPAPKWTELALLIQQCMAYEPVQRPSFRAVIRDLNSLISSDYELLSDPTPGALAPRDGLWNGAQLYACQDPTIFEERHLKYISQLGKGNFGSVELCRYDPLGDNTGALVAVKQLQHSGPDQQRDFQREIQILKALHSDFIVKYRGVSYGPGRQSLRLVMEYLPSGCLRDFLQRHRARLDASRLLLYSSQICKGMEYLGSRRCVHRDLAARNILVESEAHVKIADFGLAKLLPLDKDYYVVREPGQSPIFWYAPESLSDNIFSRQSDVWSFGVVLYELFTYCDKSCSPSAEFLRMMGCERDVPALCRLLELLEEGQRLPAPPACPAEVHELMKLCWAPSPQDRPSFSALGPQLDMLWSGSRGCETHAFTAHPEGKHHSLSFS
Description: as §1, §2

TYK2 = TYK2 (Homo sapiens, UniProt P29597); assay: experiment of inhibiting kinase activity, TYK2; conditions: read-out: inhibition rate TYK2; for inhibition at 0.1 µM: at 100 nM; for inhibition at 0.01 µM: at 10 nM
Sequence of TYK2 (P29597 whole entry): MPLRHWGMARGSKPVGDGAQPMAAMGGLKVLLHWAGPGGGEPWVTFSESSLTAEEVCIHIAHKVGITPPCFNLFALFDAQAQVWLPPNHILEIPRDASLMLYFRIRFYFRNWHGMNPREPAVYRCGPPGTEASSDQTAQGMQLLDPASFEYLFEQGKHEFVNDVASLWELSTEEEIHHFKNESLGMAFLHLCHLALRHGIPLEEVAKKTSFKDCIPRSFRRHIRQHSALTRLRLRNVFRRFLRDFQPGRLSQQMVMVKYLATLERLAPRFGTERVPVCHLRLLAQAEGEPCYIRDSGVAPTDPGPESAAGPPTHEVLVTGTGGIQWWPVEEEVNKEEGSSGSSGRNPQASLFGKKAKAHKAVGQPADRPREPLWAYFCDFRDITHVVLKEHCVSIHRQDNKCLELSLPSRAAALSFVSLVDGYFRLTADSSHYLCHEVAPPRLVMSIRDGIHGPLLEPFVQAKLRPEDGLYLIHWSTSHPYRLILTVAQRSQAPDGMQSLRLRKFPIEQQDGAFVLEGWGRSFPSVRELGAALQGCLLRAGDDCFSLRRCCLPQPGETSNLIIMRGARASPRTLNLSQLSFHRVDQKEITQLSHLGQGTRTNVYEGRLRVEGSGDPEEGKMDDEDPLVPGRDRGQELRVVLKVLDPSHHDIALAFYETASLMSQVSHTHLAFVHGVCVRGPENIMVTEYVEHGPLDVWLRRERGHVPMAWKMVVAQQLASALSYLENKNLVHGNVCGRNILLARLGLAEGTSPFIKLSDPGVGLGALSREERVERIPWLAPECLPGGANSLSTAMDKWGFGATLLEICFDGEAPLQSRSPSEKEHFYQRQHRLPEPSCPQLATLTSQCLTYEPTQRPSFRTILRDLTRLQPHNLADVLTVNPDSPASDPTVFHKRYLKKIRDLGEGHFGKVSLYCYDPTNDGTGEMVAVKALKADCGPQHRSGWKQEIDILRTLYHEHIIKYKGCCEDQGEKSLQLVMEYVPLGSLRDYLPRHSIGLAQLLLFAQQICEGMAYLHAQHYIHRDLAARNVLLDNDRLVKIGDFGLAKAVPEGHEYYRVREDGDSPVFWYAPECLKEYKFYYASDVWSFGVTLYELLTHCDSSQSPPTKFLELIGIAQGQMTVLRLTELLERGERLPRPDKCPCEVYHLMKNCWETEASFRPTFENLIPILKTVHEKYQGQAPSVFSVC
Description: as §1

JAK1 = JAK1 (Homo sapiens, UniProt P23458); assay: experiment of inhibiting kinase activity (Caliper mobility shift assay), JAK1; conditions: read-out: inhibition rate JAK1; for inhibition at 0.1 µM: at 100 nM; for inhibition at 0.01 µM: at 10 nM
Sequence of JAK1 (P23458 whole entry): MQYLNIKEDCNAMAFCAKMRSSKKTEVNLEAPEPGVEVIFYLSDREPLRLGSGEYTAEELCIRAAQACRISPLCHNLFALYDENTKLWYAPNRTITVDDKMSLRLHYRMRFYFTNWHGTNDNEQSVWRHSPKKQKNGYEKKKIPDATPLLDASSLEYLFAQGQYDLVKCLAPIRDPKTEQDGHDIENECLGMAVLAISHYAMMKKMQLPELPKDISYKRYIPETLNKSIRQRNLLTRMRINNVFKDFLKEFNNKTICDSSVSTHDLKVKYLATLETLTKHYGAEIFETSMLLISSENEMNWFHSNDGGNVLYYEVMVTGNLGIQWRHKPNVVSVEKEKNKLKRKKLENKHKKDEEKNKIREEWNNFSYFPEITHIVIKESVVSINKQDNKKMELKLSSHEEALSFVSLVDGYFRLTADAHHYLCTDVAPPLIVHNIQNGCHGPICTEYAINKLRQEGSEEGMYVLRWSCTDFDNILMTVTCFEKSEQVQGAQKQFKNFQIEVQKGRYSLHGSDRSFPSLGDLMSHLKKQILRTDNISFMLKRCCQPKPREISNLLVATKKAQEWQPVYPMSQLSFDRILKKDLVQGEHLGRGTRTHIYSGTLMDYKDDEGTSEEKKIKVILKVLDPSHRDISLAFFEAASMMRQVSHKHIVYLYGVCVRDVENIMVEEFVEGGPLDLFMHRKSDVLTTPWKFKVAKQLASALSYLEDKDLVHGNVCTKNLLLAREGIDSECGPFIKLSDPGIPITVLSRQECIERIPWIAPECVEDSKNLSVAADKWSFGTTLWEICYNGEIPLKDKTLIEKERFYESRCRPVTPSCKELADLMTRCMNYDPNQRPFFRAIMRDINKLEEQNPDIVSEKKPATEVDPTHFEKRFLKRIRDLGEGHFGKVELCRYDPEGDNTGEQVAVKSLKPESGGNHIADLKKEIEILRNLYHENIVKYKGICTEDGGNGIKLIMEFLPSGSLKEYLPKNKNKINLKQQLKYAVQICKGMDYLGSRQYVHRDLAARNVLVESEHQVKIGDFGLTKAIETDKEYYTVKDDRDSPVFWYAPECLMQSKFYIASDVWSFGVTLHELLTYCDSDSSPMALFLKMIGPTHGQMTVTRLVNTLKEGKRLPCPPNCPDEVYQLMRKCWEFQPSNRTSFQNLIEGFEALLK
Description: as §1, §2

SMILES | inhibition at 0.01 µM (JAK2) [%] | inhibition at 0.01 µM (LRRK2) [%] | inhibition at 0.1 µM (JAK2) [%] | inhibition at 0.1 µM (LRRK2) [%] | inhibition at 0.01 µM (JAK3) [%] | also measured
CN1CCOCCOc2ccc(Nc3ncc(F)c(Nc4cccc(S(=O)(=O)NC(C)(C)C)c4)n3)cc2OCC1 [Example 40, N-(tert-butyl)-3-((5-fluoro-2-((7-methyl-2,3,6,7,8,9-hexahydro-5H-benzo[b][1,4,7]trioxa[10]azacyclododecan-12-yl)amino)pyrimidin-4-yl)amino)benzenesulfonamide] | > 80 | – | > 80 | 25 to 39 | – | inhibition at 0.1 µM (JAK3): 25 to 39%; inhibition at 0.1 µM (TYK2): 40 to 79%; inhibition at 0.1 µM (JAK1): 25 to 39%
CN1CCOCCOc2ccc(Nc3ncc(F)c(-c4cn(C)c5ccccc45)n3)cc2OCC1 [Example 41, N-(5-fluoro-4-(1-methyl-1H-indol-3-yl)pyrimidin-2-yl)-7-methyl-2,3,6,7,8,9-hexahydro-5H-benzo[b][1,4,7]trioxa[10]azacyclododecan-12-amine] | 40 to 79 | – | – | – | 25 to 39 | –
CN1CCOc2ccc(Nc3ncc(F)c(-c4cn(C)c5ccccc45)n3)cc2OCC1 [Example 13, N-(5-fluoro-4-(1-methyl-1H-indol-3-yl)pyrimidin-2-yl)-4-methyl-3,4,5,6-tetrahydro-2H -benzo[b][1,4,7]bisoxazolin-9-amine] | – | – | 40 to 79 | 40 to 79 | – | IC50 (JAK3; kinase activity assay, Table 3): 50 to 200 nM; inhibition at 0.1 µM (TYK2): 25 to 39%; IC50 (JAK2): < 50 nM; IC50 (LRRK2): 50 to 200 nM
CN1CCOc2ccc(Nc3nc(N4C[C@H]5CC[C@@H](C4)N5C(=O)C4CC4)c4cc[nH]c4n3)cc2OCC1 [Example 79, cyclopropyl((1R,5S)-3-(2-((4-methyl-3,4,5,6-tetrahydro-2H-benzo[b][1,4,7]dioxazolin-9-yl)amino)-7H-pyrrolo[2,3-d]pyrimidin-4-yl)-3,8-diazabicyclo[3.2.1]octan-8-yl)methanone] | > 80 | 40 to 79 | – | – | – | inhibition at 0.01 µM (TYK2): > 80%; inhibition at 0.01 µM (JAK1): 40 to 79%
CCS(=O)(=O)N1CC(CC#N)(n2cc(-c3nc(Nc4ccc5c(c4)OCCN(C)CCOCCO5)nc4[nH]ncc34)cn2)C1 [Example 50, 2-(1-(ethylsulfonyl)-3-(4-(6-((7-methyl-2,3,6,7,8,9-hexahydro-5H-benzo[b][1,4,7]trioxa[10]azacyclododecan-12-yl)amino)-1H-pyrazolo[3,4-d]pyrimidin-4-yl)-1H-pyrazol-1-y 1)azetidin-3-yl)acetonitrile] | > 80 | – | – | – | – | inhibition at 0.01 µM (TYK2): 25 to 39%
CN1CCOc2ccc(Nc3ncc(F)c(Nc4cccc(S(=O)(=O)NC(C)(C)C)c4)n3)cc2OCC1 [Example 1, N-(tert-butyl)-3-((5-fluoro-2-((4-methyl-3,4,5,6-tetrahydro-2H-benzo[b][1,4,7]dioxazolin-9-yl)amino)pyrimidin-4-yl)amino)benzsulfamide] | 40 to 79 | – | > 80 | – | – | inhibition at 0.1 µM (JAK3): 25 to 39%; IC50 (JAK2): < 50 nM; inhibition at 0.1 µM (JAK1): 25 to 39%
CN1CCOc2ccc(Nc3nc(Nc4cccc(S(=O)(=O)NC(C)(C)C)c4)c4cc[nH]c4n3)cc2OCC1 [Example 21, N-(tert-butyl)-3-((2-((4-methyl-3,4,5,6-tetrahydro-2H-benzo[b][1,4,7]dioxazolin-9-yl)amino)-7H-pyrrolo[2,3-d]pyrimidin-4-yl)amino)benzenesulfonamide] | – | – | 40 to 79 | 40 to 79 | – | IC50 (JAK2): < 50 nM; IC50 (LRRK2): 50 to 200 nM
CCS(=O)(=O)N1CC(CC#N)(n2cc(-c3nc(Nc4ccc5c(c4)OCCN(C)CCOCCO5)ncc3F)cn2)C1 [Example 43, 2-(1-(ethylsulfonyl)-3-(4-(5-fluoro-2-((7-methyl-2,3,6,7,8,9-hexahydro-5H-benzo[b][1,4,7]trioxa[10]azacyclododecan-12-yl)amino)pyrimidin-4-yl)-1H-pyrazol-1-yl)azetidin-3-yl) acetonitrile] | > 80 | 25 to 39 | – | – | 25 to 39 | inhibition at 0.01 µM (TYK2): 40 to 79%
CN1CCOCCOc2cc(Nc3nc(Nc4ccccc4NS(C)(=O)=O)c4cc[nH]c4n3)ccc2OCC1 [Example 61, N-(2-((2-((7-methyl-2,3,6,7,8,9-hexahydro-5H-benzo[b][1,4,7]trioxa[10]azacyclododecan-13-yl)amino)-7H-pyrrolo[2,3-d]pyrimidin-4-yl)amino)phenyl)methanesulfonamide] | 40 to 79 | > 80 | – | – | 40 to 79 | IC50 (LRRK2): < 50 nM

Now from value to compound, other results behind:

inhibition at 0.01 µM (JAK2) [%] | inhibition at 0.01 µM (LRRK2) [%] | inhibition at 0.1 µM (JAK2) [%] | inhibition at 0.1 µM (LRRK2) [%] | inhibition at 0.01 µM (JAK3) [%] | SMILES | also measured
40 to 79 | 40 to 79 | – | – | – | CN1CCOCCOc2cc(Nc3nc(-c4cnn(S(C)(=O)=O)c4)c4cc[nH]c4n3)ccc2OCC1 [Example 63, 7-methyl-N-(4-(1-(methylsulfonyl)-1H-pyrazol-4-yl)-7H-pyrrolo[2,3-d]pyrimidin-2-yl)-2,3,6,7,8,9-hexahydro-5H-benzo[b][1,4,7]trioxa[10]azacyclododecan-13-amine] | –
– | – | 25 to 39 | > 80 | – | CNc1nc(Nc2ccc3c(c2)OCCN(C)CCO3)nc2[nH]ccc12 [Example 64, N^4-methyl-N^2-(4-methyl-3,4,5,6-tetrahydro-2H-benzo[b][1,4,7]dioxazolin-9-yl)-7H-pyrrolo[2,3-d]pyrimidin-2,4-diamine] | –
40 to 79 | 25 to 39 | – | – | 25 to 39 | CN1CCOc2ccc(Nc3nc(-c4cnn(C5CN(S(C)(=O)=O)C5)c4)c4cc[nH]c4n3)cc2OCC1 [Example 69, 4-methyl-N-(4-(1-(1-(methylsulfonyl)azetidin-3-yl)-1H-pyrazol-4-yl)-7H-pyrrolo [2,3-d]pyrimidin-2-yl)-3,4,5,6-tetrahydro-2H-benzo[b][1,4,7]dioxazolin-9-amine] | –
40 to 79 | – | – | – | – | CN1CCOc2ccc(Nc3ncc(Cl)c(Nc4cccc(NC(=O)[C@H]5C[C@H](N)C5)c4)n3)cc2OCC1 [Example 72, (1r,3r)-3-amino-N-(3-((5-chloro-2-((4-methyl-3,4,5,6-tetrahydro-2H-benzo[b][1,4,7]dioxazolin-9-yl)amino)pyrimidin-4-yl)amino)phenyl)cyclobutan-1-carboxamide] | inhibition at 0.01 µM (JAK1): 25 to 39%
